Source: paper PMC2453323 (PLoS Pathogens, 2008)

Tests used:
Assay type in all cases: biochemical
[1] = target: neuraminidase (H275Y) of A(H1N1) clinical isolate 1154/08 (Influenza A virus (H1N1), UniProt G3LYR2)
[2] = target: neuraminidase (H275Y) of the 11 resistant H1N1 viruses from the 2007–2008 season (Influenza A virus (H1N1), UniProt G3LYQ1, H275Y); details: read-out: Mean Km, group Mean
[3] = target: neuraminidase (H275Y) of A(H1N1) clinical isolate 0910/08 (Influenza A virus (H1N1), UniProt G3LYR2)
[4] = target: neuraminidase (H275Y) of A(H1N1) clinical isolate 0963/08 (Influenza A virus (H1N1), UniProt G3LYR2, G354D)
[5] = target: neuraminidase (H275Y) of A(H1N1) clinical isolate 0577/07 (Influenza A virus (H1N1), UniProt D5F1R0, D354G/H275Y)
[6] = target: neuraminidase (H275Y) of A(H1N1) clinical isolate 1208/08 (Influenza A virus (H1N1), UniProt G3LYR2)
[7] = target: neuraminidase (H275Y) of A(H1N1) clinical isolate 0749/07 (Influenza A virus (H1N1), UniProt D5F1R0, D354G/H275Y)
[8] = target: neuraminidase (H275Y) of A(H1N1) clinical isolate 1157/08 (Influenza A virus (H1N1), UniProt G3LYR2, G214E)
[9] = target: neuraminidase (H275Y) of A(H1N1) clinical isolate 0341/07 (Influenza A virus (H1N1), UniProt D5F1R0, D354G/H275Y)
[10] = target: neuraminidase (H275Y) of A(H1N1) clinical isolate 1170/08 (Influenza A virus (H1N1), UniProt G3LYR2)
[11] = target: neuraminidase (H275Y) of A(H1N1) clinical isolate 0847/07 (Influenza A virus (H1N1), UniProt D5F1R0, D354G/H275Y)
[12] = target: neuraminidase (H275Y) of A(H1N1) clinical isolate 0644/07 (Influenza A virus (H1N1), UniProt D5F1R0, D354G/H275Y)
[13] = target: neuraminidase of A(H1N1) clinical isolate 0006/07 (Influenza A virus (H1N1), UniProt D5F1R0, K249G)

CC(=O)N[C@@H]1[C@@H](O)C[C@](Oc2ccc3c(C)cc(=O)oc3c2)(C(=O)O)O[C@H]1C(O)[C@H](O)CO (stereo partly shown) [MUNANA]
Km [1]: 14.5 µM
Km [2]: 19.4 µM
Km [3]: 25 µM
Km [4]: 18.4 µM
Km [5]: 19.5 µM
Km [6]: 19 µM
Km [7]: 18 µM
Km [8]: 20 µM
Km [9]: 18 µM
Km [10]: 18.2 µM
Km [11]: 24 µM
Km [12]: 18.4 µM
Km [13]: 12.4 µM
